Reference: patent publication US12384770B2, “Heterocyclic compound” (Takeda Pharmaceutical Company Limited, priority 2019, dated 2025)

target: T1, HDAC6 enzyme (Homo sapiens, UniProt Q9UBN7); experiment: HDAC6 enzyme inhibitory assay (HDAC-Glo I/II Assay kit); format: biochemical; details: wells without enzyme = 100% inhibition, 10 µM
T1 construct: HDAC6 enzyme prepared by transducing full length HDAC6 gene into Sf-9 insect cells; GST; purchased SignalChem; host or cells: Sf-9 insect cells
T1 sequence (Q9UBN7 1-1215): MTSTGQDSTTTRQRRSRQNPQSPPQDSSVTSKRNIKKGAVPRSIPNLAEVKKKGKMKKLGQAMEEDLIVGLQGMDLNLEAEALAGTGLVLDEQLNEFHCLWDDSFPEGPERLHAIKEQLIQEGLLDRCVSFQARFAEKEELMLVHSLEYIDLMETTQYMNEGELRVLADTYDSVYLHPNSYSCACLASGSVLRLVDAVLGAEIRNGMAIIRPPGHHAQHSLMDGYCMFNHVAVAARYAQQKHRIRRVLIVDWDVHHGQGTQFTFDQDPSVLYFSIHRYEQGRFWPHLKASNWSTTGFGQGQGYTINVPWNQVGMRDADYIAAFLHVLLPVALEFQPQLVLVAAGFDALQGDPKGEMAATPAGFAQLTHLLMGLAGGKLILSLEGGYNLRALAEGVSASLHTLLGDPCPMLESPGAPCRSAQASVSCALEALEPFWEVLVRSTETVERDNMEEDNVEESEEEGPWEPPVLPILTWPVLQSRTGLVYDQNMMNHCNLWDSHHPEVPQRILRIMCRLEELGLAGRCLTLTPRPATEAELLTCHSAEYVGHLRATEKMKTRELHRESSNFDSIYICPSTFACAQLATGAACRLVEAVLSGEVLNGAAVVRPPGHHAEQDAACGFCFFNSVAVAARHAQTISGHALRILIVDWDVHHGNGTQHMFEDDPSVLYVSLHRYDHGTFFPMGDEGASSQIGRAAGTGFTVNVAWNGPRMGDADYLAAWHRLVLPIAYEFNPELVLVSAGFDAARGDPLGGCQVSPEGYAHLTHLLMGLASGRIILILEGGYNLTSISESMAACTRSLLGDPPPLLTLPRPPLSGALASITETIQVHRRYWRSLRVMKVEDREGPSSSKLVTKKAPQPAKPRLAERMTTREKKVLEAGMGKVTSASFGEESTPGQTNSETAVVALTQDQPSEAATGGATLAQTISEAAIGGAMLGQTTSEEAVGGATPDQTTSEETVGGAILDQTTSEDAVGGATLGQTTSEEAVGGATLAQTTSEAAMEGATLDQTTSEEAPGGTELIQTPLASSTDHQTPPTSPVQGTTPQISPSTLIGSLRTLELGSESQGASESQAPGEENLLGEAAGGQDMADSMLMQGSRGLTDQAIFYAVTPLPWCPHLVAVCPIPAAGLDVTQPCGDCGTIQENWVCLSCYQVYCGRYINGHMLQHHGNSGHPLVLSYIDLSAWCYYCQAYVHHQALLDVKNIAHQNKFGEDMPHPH
Method in brief: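 Full-length GST-purified HDAC6 from Sf-9 cells preincubated with compound 60 min at room temperature in Tris-HCl pH 7.5 buffer with MgCl2, KCl, NaCl, glutathione, Tween-20. Substrate-developer reaction 20 min, luminescence read; no-enzyme wells set as 100% inhibition.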

Row | HDAC6 inhibitory rate (%) (10 μM) | Compound
1 | 99 | O=C1c2cc(-c3nnc(C(F)F)o3)ccc2CN1[C@H](c1ccc(F)cn1)[C@@H](O)c1ccccn1 (single isomer, unassigned) [Example 60]
2 | 100 | O=C1c2cc(-c3nnc(C(F)F)o3)ccc2CN1[C@H](c1ccccn1)[C@@H](O)c1ccc(F)cc1 (single isomer, unassigned) [Example 37, 6-[5-(difluoromethyl)-1,3,4-oxadiazol-2-yl]-2-[(1R*,2S*)-2-(4-fluorophenyl)-2-hydroxy-1-(pyridin-2-yl)ethyl]-2,3-dihydro-1H-isoindol-1-one]
3 | 100 | O=C1c2cc(-c3nnc(C(F)F)o3)ccc2CN1[C@H](c1ccc(F)cc1F)[C@@H](O)c1ccc(F)cc1 (single isomer, unassigned) [Example 33, 6-[5-(difluoromethyl)-1,3,4-oxadiazol-2-yl]-2-[(1R*,2S*)-1-(2,4-difluorophenyl)-2-(4-fluorophenyl)-2-hydroxyethyl]-2,3-dihydro-1H-isoindol-1-one]

same assay, conditions: wells without enzyme = 100% inhibition, read-out: HDAC6 inhibitory rate (%) (10 μM)

Row | inhibition at 10 µM [%] | Compound
4 | 100 | O=C1c2cc(-c3nnc(C(F)F)o3)ccc2CN1[C@H](c1ccccn1)[C@@H](O)c1ccc(C(F)(F)F)cn1 (single isomer, unassigned) [Example 104, 6-[5-(difluoromethyl)-1,3,4-oxadiazol-2-yl]-2-{(1R*,2R*)-2-hydroxy-1-(pyridin-2-yl)-2-[5-(trifluoromethyl)pyridin-2-yl]ethyl}-2,3-dihydro-1H-isoindol-1-one]
5 | 99 | O=C1c2cc(-c3nnc(C(F)F)o3)ccc2CN1[C@H](c1ccc(F)cc1)[C@@H](O)c1cccc(F)c1 (racemic) [Example 16, 6-[5-(difluoromethyl)-1,3,4-oxadiazol-2-yl]-2-[(1RS,2SR)-2-(3-fluorophenyl)-1-(4-fluorophenyl)-2-hydroxyethyl]-2,3-dihydro-1H-isoindol-1-one]
6 | 99 | O=C1c2cc(-c3nnc(C(F)F)o3)ccc2CN1[C@H](c1ccc(C(F)(F)F)nc1)[C@@H](O)c1ccc(F)cc1 (racemic) [Example 18, 6-[5-(difluoromethyl)-1,3,4-oxadiazol-2-yl]-2-{(1RS,2SR)-2-(4-fluorophenyl)-2-hydroxy-1-[6-(trifluoromethyl)pyridin-3-yl]ethyl}-2,3-dihydro-1H-isoindol-1-one]
7 | 100 | O=C1c2cc(-c3nnc(C(F)F)o3)ccc2CN1[C@H](C1CC1)[C@@H](O)c1ccc(F)cn1 [Example 57, 2-[(1R,2R)-1-cyclopropyl-2-(5-fluoropyridin-2-yl)-2-hydroxyethyl]-6-[5-(difluoromethyl)-1,3,4-oxadiazol-2-yl]-2,3-dihydro-1H-isoindol-1-one]
8 | 100 | O=C1c2cc(-c3nnc(C(F)F)o3)ccc2CN1[C@H](c1cnccn1)[C@@H](O)c1ccc(Cl)cc1 (single isomer, unassigned) [Example 96, 2-[(1R*,2S*)-2-(4-chlorophenyl)-2-hydroxy-1-(pyrazin-2-yl)ethyl]-6-[5-(difluoromethyl)-1,3,4-oxadiazol-2-yl]-2,3-dihydro-1H-isoindol-1-one]
9 | 101 | O=C1c2cc(-c3nnc(C(F)F)o3)ccc2CN1[C@H](C1CCOCC1)[C@H](O)c1ccc(F)cc1 [Example 148, 6-[5-(difluoromethyl)-1,3,4-oxadiazol-2-yl]-2-[(1R,2R)-2-(4-fluorophenyl)-2-hydroxy-1-(oxan-4-yl)ethyl]-2,3-dihydro-1H-isoindol-1-one]
10 | 99 | O=C1c2cc(-c3nnc(C(F)F)o3)ccc2CN1[C@H](c1ccccc1F)[C@@H](O)c1ccc(F)cc1 (racemic) [Example 28, 6-[5-(difluoromethyl)-1,3,4-oxadiazol-2-yl]-2-[(1RS,2SR)-1-(2-fluorophenyl)-2-(4-fluorophenyl)-2-hydroxyethyl]-2,3-dihydro-1H-isoindol-1-one]
11 | 100 | O=C1c2cc(-c3nnc(C(F)F)o3)ccc2CN1[C@H](C1CCOCC1)[C@H](O)c1cccc(F)c1 [Example 149, 6-[5-(difluoromethyl)-1,3,4-oxadiazol-2-yl]-2-[(1R,2R)-2-(3-fluorophenyl)-2-hydroxy-1-(oxan-4-yl)ethyl]-2,3-dihydro-1H-isoindol-1-one]
12 | 99 | O=C1c2cc(-c3nnc(C(F)F)o3)ccc2CN1[C@H](c1ccc(F)cc1)[C@@H](O)c1cccnc1 (single isomer, unassigned) [Example 49, 6-[5-(difluoromethyl)-1,3,4-oxadiazol-2-yl]-2-[(1R*,2S*)-1-(4-fluorophenyl)-2-hydroxy-2-(pyridin-3-yl)ethyl]-2,3-dihydro-1H-isoindol-1-one]
13 | 99 | O=C1c2cc(-c3nnc(C(F)F)o3)ccc2CN1[C@H](c1ccc(F)cc1)[C@@H](O)C1CCOCC1 (racemic) [Example 30, 6-[5-(difluoromethyl)-1,3,4-oxadiazol-2-yl]-2-[(1RS,2SR)-1-(4-fluorophenyl)-2-hydroxy-2-(oxan-4-yl)ethyl]-2,3-dihydro-1H-isoindol-1-one]
14 | 101 | O=C1c2cc(-c3nnc(C(F)F)o3)ccc2CN1[C@H](c1ccccn1)[C@@H](O)c1cccc(C(F)(F)F)n1 (single isomer, unassigned) [Example 119, 6-[5-(difluoromethyl)-1,3,4-oxadiazol-2-yl]-2-{(1R*,2R*)-2-hydroxy-1-(pyridin-2-yl)-2-[6-(trifluoromethyl)pyridin-2-yl]ethyl}-2,3-dihydro-1H-isoindol-1-one]
15 | 100 | O=C1c2cc(-c3nnc(C(F)F)o3)ccc2CN1[C@H](c1ccccc1)[C@H](O)c1ccccc1F (racemic) [Example 139, 6-[5-(difluoromethyl)-1,3,4-oxadiazol-2-yl]-2-[(1RS,2RS)-2-(2-fluorophenyl)-2-hydroxy-1-phenylethyl]-2,3-dihydro-1H-isoindol-1-one]
16 | 100 | O=C1c2cc(-c3nnc(C(F)F)o3)ccc2CN1[C@H](C1CCC(F)(F)CC1)[C@@H](O)c1ccc(F)nc1 (racemic) [Example 82, 2-[(1RS,2SR)-1-(4,4-difluoro-cyclohexyl)-2-(6-fluoropyridin-3-yl)-2-hydroxyethyl]-6-[5-(difluoromethyl)-1,3,4-oxadiazol-2-yl]-2,3-dihydro-1H-isoindol-1-one]
17 | 100 | O=C1c2cc(-c3nnc(C(F)F)o3)ccc2CN1[C@H](C1CC1)[C@@H](O)c1ccccn1 [Example 38, 2-[(1R,2R)-1-cyclopropyl-2-hydroxy-2-(pyridin-2-yl)ethyl]-6-[5-(difluoromethyl)-1,3,4-oxadiazol-2-yl]-2,3-dihydro-1H-isoindol-1-one]
18 | 100 | CCOc1ccc([C@H]([C@@H](O)c2ccc(F)c(F)c2)N2Cc3ccc(-c4nnc(C(F)F)o4)cc3C2=O)cn1 (racemic) [Example 53, 6-[5-(difluoromethyl)-1,3,4-oxadiazol-2-yl]-2-[(1RS,2SR)-2-(3,4-difluorophenyl)-1-(6-ethoxypyridin-3-yl)-2-hydroxyethyl]-2,3-dihydro-1H-isoindol-1-one]
19 | 97 | O=C1c2cc(-c3nnc(C(F)F)o3)ccc2CN1[C@H](c1ccc(F)cc1F)[C@@H](O)c1ccccn1 (racemic) [Example 31, 6-[5-(difluoromethyl)-1,3,4-oxadiazol-2-yl]-2-[(1RS,2RS)-1-(2,4-difluorophenyl)-2-hydroxy-2-(pyridin-2-yl)ethyl]-2,3-dihydro-1H-isoindol-1-one]
20 | 100 | O=C1c2cc(-c3nnc(C(F)F)o3)ccc2CN1[C@H](c1ccc(F)cc1)[C@@H](O)c1ccc(F)nc1 (racemic) [Example 58, 6-[5-(difluoromethyl)-1,3,4-oxadiazol-2-yl]-2-[(1RS,2SR)-1-(4-fluorophenyl)-2-(6-fluoropyridin-3-yl)-2-hydroxyethyl]-2,3-dihydro-1H-isoindol-1-one]
21 | 98 | O=C1c2cc(-c3nnc(C(F)F)o3)ccc2CN1[C@H](C1CC1)[C@@H](O)c1ccc(Cl)cn1 (racemic) [Example 65, 2-[(1RS,2RS)-2-(5-chloropyridin-2-yl)-1-cyclopropyl-2-hydroxyethyl]-6-[5-(difluoromethyl)-1,3,4-oxadiazol-2-yl]-2,3-dihydro-1H-isoindol-1-one]
